Experimental findings from patent US7781432B2 (Gruenenthal GmbH, priority 2004, dated 2010) are described below.

The target in data set [1] is T1, Nucleoside Transporter (Homo sapiens, UniProt Q99808).
T1 sequence (Q99808 1-456): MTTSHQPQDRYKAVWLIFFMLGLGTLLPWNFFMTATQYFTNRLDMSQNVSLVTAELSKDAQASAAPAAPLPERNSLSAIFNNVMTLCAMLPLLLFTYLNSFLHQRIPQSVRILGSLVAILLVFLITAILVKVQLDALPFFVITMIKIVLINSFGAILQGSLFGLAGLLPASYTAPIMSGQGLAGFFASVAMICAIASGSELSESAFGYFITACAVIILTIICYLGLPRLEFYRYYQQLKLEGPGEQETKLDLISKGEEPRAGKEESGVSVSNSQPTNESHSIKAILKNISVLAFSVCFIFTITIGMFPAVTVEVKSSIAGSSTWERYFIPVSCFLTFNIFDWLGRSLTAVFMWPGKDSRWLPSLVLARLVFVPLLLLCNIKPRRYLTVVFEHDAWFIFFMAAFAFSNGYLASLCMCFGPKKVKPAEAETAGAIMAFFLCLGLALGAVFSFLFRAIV
The note with it: pH 7.4.

For data set [2], the target named is T1, Nucleoside Transporter. Kind of data set: biochemical.
For data set [3], the target named is T1, Nucleoside Transporter. Kind of data set: radioligand binding assay with [3H]NBTI on human erythrocyte membranes. The settings on record: [[…] 1.5 nM, test concentration not printed (footnote c missing).

Broadly, the melting point is the temperature, or range, at which the solid turns liquid. One may read the Ki as the equilibrium dissociation constant of an inhibitor or competing ligand from its target.

Read-outs that look alike come from different tables or passages of the source.

The compound `O=[N+]([O-])c1ccc(CSc2ncnc3c2nc(NC2CCCCC2)n3Cc2ccccc2)cc1` [Example 15, 9-benzyl-8-(cyclohexylamine)-6-(4-nitrobenzyl)-mercaptopurine] had a melting point of 66 to 68 °C. In data set [1], this compound registered a Ki of 55 nM.

In the case of `OC[C@H]1O[C@@H](n2c(NC3CC3)nc3c(SCc4ccccc4)ncnc32)[C@H](O)[C@@H]1O` [Example 8, 6-benzyl-8-(cyclopropylamino)-thioinosine], in data set [1], the Ki is 3 nM.

As for “6-benzyl-8-(n-butylamino)-thioinosine [Example 4]”, in data set [1], the affinity, expressed as Ki, was 5.4 nM. Against the preceding compound, the Ki is about 1.8-fold higher.

As for `CCCNc1nc2c(SCc3ccccc3)ncnc2n1[C@@H]1O[C@H](CO)[C@@H](O)[C@H]1O` [Example 3, 6-benzyl-8-(n-propylamino)-thioinosine], the affinity in data set [1] corresponds to a Ki of 5.3 nM.

`O=[N+]([O-])c1ccc(CSc2ncnc3c2nc(NC2CCCC2)n3Cc2ccccc2)cc1` [Example 14, 9-benzyl-8-(cyclopentylamine)-6-(4-nitrobenzyl)-mercaptopurine]: the melting point lay in the range of 150 to 151 °C. The compound also came in with a Ki in data set [1] of 29 nM.

As to “9-benzyl-6-(4-nitrobenzyl)-8-pyrrolidino-mercaptopurine [Example 16]”, the Ki in data set [1] worked out at 1520 nM.

On to `c1ccc(CSc2ncnc3c2nc(N2CCCC2)n3Cc2ccccc2)cc1` [Example 21, 9-benzyl-6-benzylsulfanyl-8-pyrrolidin-1-yl-9H-purine], for which the Ki in data set [2] was 514 nM.

For the compound “6-benzyl-8-(n-pentylamino)-thioinosine [Example 5]”, affinity in data set [1] was put at a Ki of 2.3 nM.

Compound `c1ccc(Cn2c(N3CCOCC3)nc3c(SCc4ccc5nonc5c4)ncnc32)cc1` [Example 19, 6-(benzo[c][1,2,5]oxadiazole-5-ylmethylsulfanyl)-9-benzyl-8-morpholin-4-yl-9H-purine] returned a Ki in data set [2] of 122 nM.

Consider `CCNc1nc2c(SCc3ccccc3)ncnc2n1[C@@H]1O[C@H](CO)[C@@H](O)[C@H]1O` [Example 2, 6-benzyl-8-ethylamino-thioinosine], for which affinity in data set [1] was put at a Ki of 9.5 nM.

In data set [1], “6-benzyl-8-(cyclohexylamino)-thioinosine [Example 10]” gave an inhibition constant (Ki) of 0.94 nM.

As for `OC[C@H]1O[C@@H](n2c(N3CCOCC3)nc3c(SCc4ccccc4)ncnc32)[C@H](O)[C@@H]1O` [Example 13], the “Binding Nucleoside Transporter (value printed as % in the Ki column)” value in data set [3] is on record as 33%^c.

`OC[C@H]1O[C@@H](n2c(N3CCCC3)nc3c(SCc4ccccc4)ncnc32)[C@H](O)[C@@H]1O` [Example 11, 6-benzyl-8-pyrrolidino-thioinosine] came in with an inhibition constant Ki in data set [1] of 410 nM.

In turn, `c1ccc(CSc2ncnc3c2nc(N2CCOCC2)n3Cc2ccccc2)cc1` [Example 20, 9-benzyl-6-benzylsulfanyl-8-morpholin-4-yl-9H-purine] returned a Ki in data set [2] of 1390 nM.

In the case of `CCC(C)CNc1nc2c(SCc3ccccc3)ncnc2n1[C@@H]1O[C@H](CO)[C@@H](O)[C@H]1O` (stereo partly shown) [Example 7, 6-benzyl-8-[(2-methyl-butyl)-amino]-thioinosine], the Ki in data set [1] stood at 3.6 nM.

`OC[C@H]1O[C@@H](n2c(NC3CCCC3)nc3c(SCc4ccccc4)ncnc32)[C@H](O)[C@@H]1O` [Example 9, 6-benzyl-8-(cyclopentylamino)-thioinosine] showed an inhibition constant Ki in data set [1] of 0.64 nM.

`OC[C@H]1O[C@@H](n2c(N3CCCCC3)nc3c(SCc4ccccc4)ncnc32)[C@H](O)[C@@H]1O` [Example 12, 6-benzyl-8-piperidino-thioinosine]: in data set [1], the affinity corresponds to a Ki of 744 nM.
